Assay results from patent US8143282B2, “Heterocyclic compounds” (S*BIO Pte Ltd., priority 2005, dated 2012).

Columns and labels:
HDAC1 enzyme = target: T1, HDAC1 enzyme (Homo sapiens, UniProt Q13547); assay: In vitro HDAC assay for determination of IC50 values (BIOMOL fluorescent-based HDAC activity assay); assay type: biochemical
T1 construct: Amplification of human HDAC1 coding region from this cDNA library was cloned separately into the baculovirus expression pDEST20 vector; made in house; host or cells: SF9 insect cells, pDEST20-HDAC1 baculovirus
Method: Human cDNA library was prepared using cultured SW620 cells. Amplification of human HDAC1 coding region from this cDNA library was cloned separately into the baculovirus expression pDEST20 vector (GATEWAY Cloning Technology, Invitrogen Pte Ltd). The pDEST20-HDAC1 construct was confirmed by DNA sequencing. Recombinant baculovirus was prepared using the Bac-To-Bac method following the manufacturer's instruction (Invitrogen Pte Ltd).
Expression of GST-HDAC1 was done by infecting SF9 cells (Invitrogen Pte Ltd) with pDEST20-HDAC1 baculovirus at MOI=1 for 48 h. Soluble cell lysate was incubated with pre-equilibrated Glutathione Sepharose 4B beads (Amersham) at 4° C. for 2 h. The beads were washed with PBS buffer for 3 times. The GST-HDAC1 protein was eluted by elution buffer containing 50 mM Tris, pH8.0, 150 mM NaCl, 1% Triton X-100 and 10 mM or 20 mM reduced Glutathione. The purified GST-HDAC1 protein was dialyzed with HDAC storage buffer containing 10 mM Tris, pH7.5, 100 mM NaCl and 3 mM MgCl2. 20% Glycerol was added to purified GST-HDAC1 protein before storage at −80° C.
The assay has been carried out in 96 well format and the BIOMOL fluorescent-based HDAC activity assay has been applied. […] Flur de lys Developer was added and the reaction was incubated for 10 min. Briefly, deacetylation of the substrate sensitizes it to the developer, which then generates a fluorophore. The fluorophore is excited with 360 nm light and the emitted light (460 nm) is detected on a fluorometric plate reader (Tecan Ultra Microplate detection system, Tecan Group Ltd.).
The analytical software, Prism 4.0 (GraphPad Software Inc) has been used to generate IC50 from a series of data.

Colo205 cells = assay: Cell-based proliferation assay for GI50 (CyQUANT), Colo205; conditions: Homo sapiens, COLO 205, 96 h treatment, read-out: Cellular or Growth Inhibition Activity in Colo205 cells, GI50
Method: Human colon cancer cell lines (Colo205, HCT116), Ovarian cancer cell line (A2780), Hepatoma cell line (HEP3B), Prostate cancer cell line (PC3) were obtained from ATCC or ECACC. Colo205 cells were cultivated in RPMI 1640 containing 2 mM L-Glutamine, 5% FBS, 1.0 mM Na Pyruvate, 1 U/ml of penicillin and 1 μg of streptomycin. HCT116 cells were cultivated in McCoy's containing RPMI 1640 containing 2 mM L-Glutamine, 5% FBS, 1 U/ml of penicillin and 1 μg of streptomycin. A2780 cells were cultivated in RPMI 1640 containing 2 mM L-Glutamine, 5% FBS, 1 U/ml of penicillin and 1 μg of streptomycin. HEP3B cells were cultivated in EMEM containing 2 mM L-glutamine, 5% FBS, 1% non essential amino acid, 1 mM Na Pyruvate, 1 U/ml of penicillin and 1 μg of streptomycin. PC3 cells were cultivated in F12K, 2 mM L-glutamine, 5% FBS, 1 U/ml of penicillin and 1 μg of streptomycin. PC3, Colo205, and HCT116 cells were seeded in 96-wells plate at 1000, 5000 and 6000 cells per well respectively. A2780 and HEP3B cells were seeded in 96-wells plate at 4000 cells per well respectively. The plates were incubated at 37° C., 5% CO2, for 24 h. Cells were treated with compounds at various concentrations for 96 h. Cell growth was then monitored using CyQUANT® cell proliferation assay (Invitrogen Pte Ltd). Dose response curves were plotted to determine GI50 values for the compounds using XL-fit (ID Business Solution, Emeryville, Calif.). GI50 is defined as the concentration of compound required for 50% inhibition of cell growth.

T1 sequence (Q13547 whole entry): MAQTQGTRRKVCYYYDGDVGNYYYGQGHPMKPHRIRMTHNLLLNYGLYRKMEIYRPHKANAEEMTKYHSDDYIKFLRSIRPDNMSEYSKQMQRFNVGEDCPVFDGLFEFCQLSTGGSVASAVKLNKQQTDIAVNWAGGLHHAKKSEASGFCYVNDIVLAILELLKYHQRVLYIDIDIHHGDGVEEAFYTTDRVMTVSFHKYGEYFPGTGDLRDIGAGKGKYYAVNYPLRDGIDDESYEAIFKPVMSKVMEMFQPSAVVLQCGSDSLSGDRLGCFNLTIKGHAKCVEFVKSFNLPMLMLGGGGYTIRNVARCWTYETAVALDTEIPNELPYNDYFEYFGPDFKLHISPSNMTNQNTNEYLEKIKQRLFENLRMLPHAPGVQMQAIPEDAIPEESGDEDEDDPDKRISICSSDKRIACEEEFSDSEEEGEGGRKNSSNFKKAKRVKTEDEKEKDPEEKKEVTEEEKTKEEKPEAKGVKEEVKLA

Row | SMILES | IC50 (HDAC1 enzyme) [nM] | GI50 (Colo205 cells) [nM]
1 | CCCCCc1nc2cc(/C=C/C(=O)NO)ccc2n1CCN(CC)CCOC [Compound 84, 3-(1-{2-[Ethyl-(2-methoxy-ethyl)-amino]-ethyl}-2-pentyl-1H-benzoimidazol-5-yl)-N-hydroxy-acrylamide] | 63 | 1030
2 | CCCCc1nc2cc(/C=C/C(=O)NO)ccc2n1CCN(C)CC [Compound 85, 3-{2-Butyl-1-[2-(ethyl-methyl-amino)-ethyl]-1H-benzoimidazol-5-yl}-N-hydroxy-acrylamide] | 110 | 1520
3 | CCCCCc1nc2cc(/C=C/C(=O)NO)ccc2n1C1CCCN(C)C1 (centres unmarked) [Compound 86, N-Hydroxy-3-[1-(1-methyl-piperidin-3-yl)-2-pentyl-1H-benzoimidazol-5-yl]-acrylamide] | 160 | 2080
4 | CCCCCCN(CC)CCn1cnc2cc(/C=C/C(=O)NO)ccc21 [Compound 87, 3-{1-[2-(Ethyl-hexyl-amino)-ethyl]-1H-benzoimidazol-5-yl}-N-hydroxy-acrylamide] | 100 | 1070
5 | CCCCCCCN(CC)CCn1cnc2cc(/C=C/C(=O)NO)ccc21 [Compound 89, 3-{1-[2-(Ethyl-heptyl-amino)-ethyl]-1H-benzoimidazol-5-yl}-N-hydroxy-acrylamide] | 80 | 870
6 | CCCCCCc1nc2cc(/C=C/C(=O)NO)ccc2n1C1CCCN(CCO)C1 (centres unmarked) [Compound 90, 3-{2-Hexyl-1-[1-(2-hydroxy-ethyl)-piperidin-3-yl]-1H-benzoimidazol-5-yl}-N-hydroxy-acrylamide] | 510 | 8100
7 | CCCCc1nc2cc(/C=C/C(=O)NO)ccc2n1CCN(CC)CCCO [Compound 91, 3-(2-Butyl-1-{2-[ethyl-(3-hydroxy-propyl)-amino]-ethyl}-1H-benzoimidazol-5-yl)-N-hydroxy-acrylamide] | 60 | 2400
8 | CCCCCc1nc2cc(/C=C/C(=O)NO)ccc2n1CCN(CC)CCCO [Compound 92, 3-(1-{2-[Ethyl-(3-hydroxy-propyl)-amino]-ethyl}-2-pentyl-1H-benzoimidazol-5-yl)-N-hydroxy-acrylamide] | 50 | 1820
9 | O=C(/C=C/c1ccc2c(c1)ncn2C1CCN(CCc2ccccc2)C1)NO (centres unmarked) [Compound 93, (E)-N-hydroxy-3-(1-(1-phenethylpyrrolidin-3-yl)-1H-benzo[d]imidazol-5-yl)acrylamide] | 230 | 2140
10 | CCCCCN1CCCC(n2cnc3cc(/C=C/C(=O)NO)ccc32)C1 (centres unmarked) [Compound 94, (E)-N-hydroxy-3-(1-(1-pentylpiperidin-3-yl)-1H-benzo[d]imidazol-5-yl)acrylamide] | 64 | 600
11 | CCCCN(CC)CCn1cnc2cc(/C=C/C(=O)NO)ccc21 [Compound 95, 3-{1-[2-(Butyl-ethyl-amino)-ethyl]-1H-benzoimidazol-5-yl}-N-hydroxy-acrylamide] | 52 | 570
12 | O=C(/C=C/c1ccc2c(c1)ncn2C1CCCN(CCc2ccccc2)C1)NO (centres unmarked) [Compound 96, (E)-N-hydroxy-3-(1-(1-phenethylpiperidin-3-yl)-1H-benzo[d]imidazol-5-yl)acrylamide] | 80 | 700
13 | O=C(/C=C/c1ccc2c(c1)ncn2C1CCCN(CCCc2ccccc2)C1)NO (centres unmarked) [Compound 97, (E)-N-hydroxy-3-(1-(1-(3-phenylpropyl)piperidin-3-yl)-1H-benzo[d]imidazol-5-yl)acrylamide] | 100 | 670
14 | CC(C)(C)CCN1CCC(n2cnc3cc(/C=C/C(=O)NO)ccc32)C1 (centres unmarked) [Compound 99, 3-{1-[1-(3,3-Dimethyl-butyl)-pyrrolidin-3-yl]-1H-benzoimidazol-5-yl}-N-hydroxy-acrylamide] | 120 | 1890
15 | CCN(CC)CCn1cnc2cc(/C=C/C(=O)NO)ccc21 [Compound 100, (E)-3-(1-(2-(diethylamino)ethyl)-1H-benzo[d]imidazol-5-yl)-N-hydroxyacrylamide] | 190 | 2250
16 | CCN(CC)CCn1c(CCCCC#N)nc2cc(/C=C/C(=O)NO)ccc21 [Compound 101, 3-[2-(4-Cyano-butyl)-1-(2-diethylamino-ethyl)-1H-benzoimidazol-5-yl]-N-hydroxy-acrylamide] | 80 | 2440
17 | CCCCN1CCCC(n2cnc3cc(/C=C/C(=O)NO)ccc32)C1 (centres unmarked) [Compound 102, (E)-3-(1-(1-butylpiperidin-3-yl)-1H-benzo[d]imidazol-5-yl)-N-hydroxyacrylamide] | 540 | 2080
18 | C=CCCCN1CCCC(n2cnc3cc(/C=C/C(=O)NO)ccc32)C1 (centres unmarked) [Compound 103, (E)-N-hydroxy-3-(1-(1-(pent-4-enyl)piperidin-3-yl)-1H-benzo[d]imidazol-5-yl)acrylamide] | 100 | 480
19 | CC(C)(C)CCN1CCC(n2cnc3cc(/C=C/C(=O)NO)ccc32)CC1 [Compound 104, (E)-3-(1-(1-(3,3-dimethylbutyl)piperidin-4-yl)-1H-benzo[d]imidazol-5-yl)-N-hydroxyacrylamide] | 410 | 1990
20 | CCCNc1nc2cc(/C=C/C(=O)NO)ccc2n1CCN(CC)CC [Compound 105, 3-[1-(2-Diethylamino-ethyl)-2-propylamino-1H-benzoimidazol-5-yl]-N-hydroxy-acrylamide] | 130 | 1770
21 | CCCN(CCn1cnc2cc(/C=C/C(=O)NO)ccc21)C(C)C [Compound 107, (E)-N-hydroxy-3-(1-(2-(isopropyl(propyl)amino)ethyl)-1H-benzo[d]imidazol-5-yl)acrylamide] | 74 | 630
22 | CCCCCN(CCn1cnc2cc(/C=C/C(=O)NO)ccc21)C(C)C [Compound 109, N-Hydroxy-3-{1-[2-(isopropyl-pentyl-amino)-ethyl]-1H-benzoimidazol-5-yl}-acrylamide] | 48 | 490
23 | CCN(CC)CCn1c(CCCCCC#N)nc2cc(/C=C/C(=O)NO)ccc21 [Compound 110, 3-[2-(5-Cyano-pentyl)-1-(2-diethylamino-ethyl)-1H-benzoimidazol-5-yl]-N-hydroxy-acrylamide] | 44 | 1740
24 | CCCN(CC)CCn1cnc2cc(/C=C/C(=O)NO)ccc21 [Compound 112, 3-{1-[2-(Ethyl-propyl-amino)-ethyl]-1H-benzoimidazol-5-yl}-N-hydroxy-acrylamide] | 120 | 880
25 | CCCC(C)CN(CCn1cnc2cc(/C=C/C(=O)NO)ccc21)C(C)C (centres unmarked) [Compound 113, N-Hydroxy-3-(1-{2-[isopropyl-(2-methyl-pentyl)-amino]-ethyl}-1H-benzoimidazol-5-yl)-acrylamide] | 16 | 610
26 | CC(C)N(CCCC(F)(F)F)CCn1cnc2cc(/C=C/C(=O)NO)ccc21 [Compound 114, (E)-N-hydroxy-3-(1-(2-(isopropyl(4,4,4-trifluorobutyl)amino)ethyl)-1H-benzo[d]imidazol-5-yl)acrylamide] | 63 | 720
27 | CCCCCCN(CC)CCn1c(C)nc2cc(/C=C/C(=O)NO)ccc21 [Compound 116, 3-{1-[2-(Ethyl-hexyl-amino)-ethyl]-2-methyl-1H-benzoimidazol-5-yl}-N-hydroxy-acrylamide] | 100 | 700
28 | CCCCN(CC)CCn1c(C(F)(F)F)nc2cc(/C=C/C(=O)NO)ccc21 [Compound 117, 3-{1-[2-(Butyl-ethyl-amino)-ethyl]-2-trifluoromethyl-1H-benzoimidazol-5-yl}-N-hydroxy-acrylamide] | 190 | 1800
